{"source": "patent US7473688B2", "about": "“Indolobenzazepine HCV NS5B inhibitors” (Bristol-Myers Squibb Company, priority 2005, dated 2009)", "key": {"HCV NS5B": {"target": "T1, HCV NS5B (Hepatitis C virus genotype 1b, UniProt Q9WMX2)", "T1 construct": "The protein was expressed with an 18 amino acid C-terminal truncation to enhance the solubility; made in house; host or cells: E. coli BL21 (DE3), pET21a", "T1 sequence (Q9WMX2 2420-2992)": "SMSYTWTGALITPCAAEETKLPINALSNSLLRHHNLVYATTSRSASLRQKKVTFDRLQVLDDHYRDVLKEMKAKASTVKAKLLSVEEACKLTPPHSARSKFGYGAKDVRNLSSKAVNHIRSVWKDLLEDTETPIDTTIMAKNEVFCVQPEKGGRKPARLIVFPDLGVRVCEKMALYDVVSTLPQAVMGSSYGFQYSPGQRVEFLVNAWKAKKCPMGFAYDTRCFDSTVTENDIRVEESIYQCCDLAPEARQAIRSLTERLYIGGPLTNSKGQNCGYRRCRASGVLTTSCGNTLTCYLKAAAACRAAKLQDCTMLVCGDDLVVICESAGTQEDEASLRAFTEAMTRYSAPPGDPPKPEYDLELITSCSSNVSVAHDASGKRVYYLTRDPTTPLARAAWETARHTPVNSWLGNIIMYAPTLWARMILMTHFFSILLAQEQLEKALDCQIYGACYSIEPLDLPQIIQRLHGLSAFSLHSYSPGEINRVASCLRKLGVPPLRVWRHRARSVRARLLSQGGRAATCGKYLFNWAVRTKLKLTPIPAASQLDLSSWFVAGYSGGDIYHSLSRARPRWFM", "experiment": "HCV NS5B RdRp enzyme assay (preincubation protocol)", "format": "biochemical", "description": "HCV NS5B RdRp cloning, expression, and purification. The cDNA encoding the NS5B protein of HCV, genotype 1b, was cloned into the pET21a expression vector. The protein was expressed with an 18 amino acid C-terminal truncation to enhance the solubility. The E. coli competent cell line BL21 (DE3) was used for expression of the protein. Cultures were grown at 37° C. for ˜4 hours until the cultures reached an optical density of 2.0 at 600 nm. The cultures were cooled to 20° C. and induced with 1 mM IPTG. Fresh ampicillin was added to a final concentration of 50 μg/ml and the cells were grown overnight at 20° C.\nCell pellets (3L) were lysed for purification to yield 15-24 mgs of purified NS5B. The lysis buffer consisted of 20 mM Tris-HCl, pH 7.4, 500 mM NaCl, 0.5% triton X-100, 1 mM DTT, 1 mM EDTA, 20% glycerol, 0.5 mg/ml lysozyme, 10 mM MgCl2, 15 ug/ml deoxyribonuclease I, and Complete TM protease inhibitor tablets (Roche). After addition of the lysis buffer, frozen cell pellets were resuspended using a tissue homogenizer. To reduce the viscosity of the sample, aliquots of the lysate were sonicated on ice using a microtip attached to a Branson sonicator. The sonicated lysate was centrifuged at 100,000×g for 1 hr at 4° C. and filtered through a 0.2 μm filter unit (Corning).\nThe protein was purified using three sequential chromatography steps: Heparin sepharose CL-6B, polyU sepharose 4B, and Hitrap SP sepharose (Pharmacia). The chromatography buffers were identical to the lysis buffer but contained no lysozyme, deoxyribonuclease I, MgCl2 or protease inhibitor and the NaCl concentration of the buffer was adjusted according to the requirements for charging the protein onto the column. Each column was eluted with a NaCl gradient which varied in length from 5-50 column volumes depending on the column type. After the final chromatography step, the resulting purity of the enzyme is >90% based on SDS-PAGE analysis. The enzyme was aliquoted and stored at −80° C.\nStandard HCV NS5B RdRp enzyme assay. HCV RdRp genotype 1b assays were run in a final volume of 60 μl in 96 well plates (Costar 3912). The assay buffer is composed of 20 mM Hepes, pH 7.5, 2.5 mM KCl, 2.5 mM MgCl2, 1 mM DTT, 1.6 U RNAse inhibitor (Promega N2515), 0.1 mg/ml BSA (Promega R3961), and 2% glycerol. All compounds were serially diluted (3-fold) in DMSO and diluted further in water such that the final concentration of DMSO in the assay was 2%. HCV RdRp genotype 1b enzyme was used at a final concentration of 28 nM. A polyA template was used at 6 nM, and a biotinylated oligo-dT12 primer was used at 180 nM final concentration. Template was obtained commercially (Amersham 27-4110). Biotinylated primer was prepared by Sigma Genosys. 3H-UTP was used at 0.6 μCi (0.29 μM total UTP). Reactions were initiated by the addition of enzyme, incubated at 30° C. for 60 min, and stopped by adding […] of 50 mM EDTA containing SPA beads (4 μg/μl, Amersham RPNQ 0007). Plates were read on a Packard Top Count NXT after >1 hr incubation at room temperature.\nModified HCV NS5B RdRp enzyme assay. A modified enzyme assay was performed essentially as described for the standard enzyme assay except for the following: The biotinylated oligo dT12 primer was precaptured on streptavidin-coated SPA beads by mixing primer and beads in assay buffer and incubating at room temperature for one hour. Unbound primer was removed after centrifugation. The primer-bound beads were resuspended in 20 mM Hepes buffer, pH 7.5 and used in the assay at final concentrations of […] primer and 0.67 μg/μl beads. Order of addition in the assay: Enzyme (14 nM) was added to diluted compound followed by the addition of a mixture of template (0.2 nM), 3H-UTP (0.6 μCi, 0.29 μM), and primer-bound beads, to initiate the reaction; concentrations given are final. Reactions were allowed to proceed for 4 hours at 30° C.\nIC50 values for compounds were determined using seven different [I]. […]"}, "HCV replicon": {"tested_on": "HCV replicon", "experiment": "HCV replicon FRET assay", "format": "cell-based", "conditions": "Hepatitis C virus, FRET assay, read-out: EC50*", "excerpt": "FRET Assay Preparation. To perform the HCV FRET screening assay, 96-well cell culture plates were used. The FRET peptide (Anaspec, Inc.) (Taliani et al., Anal. Biochem. 1996, 240, 60-67) contains a fluorescence donor, EDANS, near one end of the peptide and an acceptor, DABCYL, near the other end. The fluorescence of the peptide is quenched by […] resonance energy transfer (RET) between the donor and the acceptor, but as the NS3 protease cleaves the peptide the products are released from RET quenching and the fluorescence of the donor becomes apparent. The assay reagent was made as follows: 5× cell Luciferase cell culture lysis reagent from Promega (#E153A) diluted to 1× with dH2O, NaCl added to 150 mM final, the FRET peptide diluted to 20 uM final from a 2 mM stock.\nTo prepare plates, HCV replicon cells, with or without a Renilla luciferase reporter gene, were trypsinized and placed into each well of a 96-well plate with titrated test compounds added in columns 3 through 12; columns 1 and 2 contained a control compound (HCV protease inhibitor), and the bottom row contained cells without compound. The plates were then placed in a CO2 incubator at 37° C.\nAssays. Subsequent to addition of the test compounds described above (FRET Assay Preparation), at various times the plate was removed and Alamar blue solution (Trek Diagnostics, #00-100) was added per well as a measure of cellular toxicity. After reading in a Cytoflour 4000 instrument (PE Biosystems), plates were rinsed with PBS and then used for FRET assay by the addition of 30 ul of the FRET peptide assay reagent described above (FRET Assay Preparation) per well. The plate was then placed into the Cytoflour 4000 instrument which had been set to 340 excite/490 emission, automatic mode for 20 cycles and the plate read in a kinetic mode. Typically, the signal to noise using an endpoint analysis after the reads was at least three-fold. Alternatively, after Alamar blue reading, plates were rinsed with PBS, 50 ul of DMEM (high glucose) without phenol red was added and plates were then used for luciferase assay using the Promega Dual-Glo Luciferase Assay System.\nCompound analysis was determined by quantification of the relative HCV replicon inhibition and the relative cytotoxicity values. To calculate cytoxicity values, the average Alamar Blue fluorescence signals from the control wells were set as 100% non-toxic. The individual signals in each of the compound test wells were then divided by the average control signal and multiplied by 100% to determine […]. To calculate the HCV replicon inhibition values, an average background value was obtained from the two wells containing the highest amount of HCV protease inhibitor at the end of the assay period. These numbers were similar to those obtained from naïve Huh-7 cells.\nThe background numbers were then subtracted from the average signal obtained from the control wells and this number was used as 100% activity. The individual signals in each of the compound test wells were then divided by the averaged control values after background subtraction and multiplied by 100% to determine percent activity. EC50 values for a protease inhibitor titration were calculated as the concentration which caused a 50% reduction in FRET or luciferase activity. The two numbers generated for the compound plate, percent cytoxicity and percent activity were used to determine compounds of interest for further analysis."}}, "note": "Read-outs that look alike come from different tables or passages of the source."}
{"smiles": "COc1ccc2c(c1)CC(NC(=O)N1C[C@@H](C)N(C)[C@@H](C)C1)Cn1c-2c(C2CCCCC2)c2ccc(C(=O)NS(=O)(=O)N(C)C)cc21", "note": "(stereo partly drawn)", "values": [{"measurement": "IC50", "setting": "HCV NS5B; Table 1b, read-out: IC50*", "value": "20 to 1000", "unit": "nM"}, {"measurement": "EC50", "setting": "HCV replicon; Table 1b", "value": "30 to 1000", "unit": "nM"}]}
{"smiles": "O=C(NS(=O)(=O)C(F)(F)F)c1ccc2c(C3CCCCC3)c3n(c2c1)CC(C(=O)N1CCOCC1)=Cc1ccccc1-3", "values": [{"measurement": "IC50", "setting": "HCV NS5B; Table 1, read-out: IC50*", "value": "10 to 1000", "unit": "nM"}, {"measurement": "EC50", "setting": "HCV replicon; Table 1", "value": "1000 to 10000", "unit": "nM"}]}
{"smiles": "COC(=O)c1ccc2c(C3CCCCC3)c3n(c2c1)CC(C(=O)N1CC[C@@H](F)C1)=Cc1ccccc1-3", "values": [{"measurement": "EC50", "setting": "HCV replicon; Table 1", "value": "> 370", "unit": "nM"}]}
{"smiles": "COC(=O)c1ccc2c(C3CCCCC3)c3n(c2c1)CC(C(=O)N1CCC(N2CCOCC2)CC1)=Cc1ccc(Cl)cc1-3", "values": [{"measurement": "EC50", "setting": "HCV replicon; Table 1", "value": "1000 to 10000", "unit": "nM"}]}
{"smiles": "COC(=O)c1ccc2c(C3CCCCC3)c3n(c2c1)CC(C(=O)Nc1nccs1)=Cc1ccccc1-3", "values": [{"measurement": "EC50", "setting": "HCV replicon; Table 1", "value": "1000 to 10000", "unit": "nM"}]}
{"smiles": "COC(=O)c1ccc2c(C3CCCCC3)c3n(c2c1)CC(C(=O)N1CCC(N2C(=O)Cc4ccccc42)CC1)=Cc1ccccc1-3", "values": [{"measurement": "EC50", "setting": "HCV replicon; Table 1", "value": "1000 to 10000", "unit": "nM"}]}
{"smiles": "COC(=O)c1ccc2c(C3CCCCC3)c3n(c2c1)CC(C(=O)N1CCC(NC(C)=O)CC1)=Cc1ccccc1-3", "values": [{"measurement": "EC50", "setting": "HCV replicon; Table 1", "value": "1000 to 10000", "unit": "nM"}]}
{"smiles": "COC(=O)c1ccc2c(C3CCCCC3)c3n(c2c1)C/C(=N/O)Cc1ccccc1-3", "values": [{"measurement": "EC50", "setting": "HCV replicon; Table 1", "value": "> 10000", "unit": "nM"}]}
{"smiles": "COC(=O)c1ccc2c(C3CCCCC3)c3n(c2c1)CC(C(=O)N[C@@H]1C2CCC(C)([C@@H]1O)C2(C)C)=Cc1cc(OC)ccc1-3", "note": "(stereo partly drawn)", "values": [{"measurement": "IC50", "setting": "HCV NS5B; Table 1b, read-out: IC50*", "value": "> 12500", "unit": "nM"}]}
{"smiles": "COc1ccc2c(c1)C=C(C(=O)N1CCN(C(=O)CN)CC1)Cn1c-2c(C2CCCCC2)c2ccc(C(=O)NS(=O)(=O)N(C)C)cc21", "values": [{"measurement": "IC50", "setting": "HCV NS5B; Table 1a, read-out: IC50*", "value": "< 20", "unit": "nM"}]}
{"smiles": "COc1ccc2c(c1)C=C(C(=O)N1CCN(c3ccccc3OC)CC1)Cn1c-2c(C2CCCCC2)c2ccc(C(=O)NS(=O)(=O)N(C)C)cc21", "values": [{"measurement": "IC50", "setting": "HCV NS5B; Table 1a, read-out: IC50*", "value": "10 to 1000", "unit": "nM"}]}
{"smiles": "CNC(=O)CNC(=O)C1=Cc2cc(OC)ccc2-c2c(C3CCCCC3)c3ccc(C(=O)O)cc3n2C1", "values": [{"measurement": "IC50", "setting": "HCV NS5B; Table 1a, read-out: IC50*", "value": "10 to 1000", "unit": "nM"}]}
{"smiles": "CC(=O)NN(C)C(=O)C1=Cc2ccccc2-c2c(C3CCCCC3)c3ccc(C(=O)O)cc3n2C1", "note": "[drawing 156]", "values": [{"measurement": "IC50", "setting": "HCV NS5B; Table 1, read-out: IC50*", "value": "10 to 1000", "unit": "nM"}]}
{"smiles": "O=C(NCc1nnn[nH]1)c1ccc2c(C3CCCCC3)c3n(c2c1)CC(C(=O)N1CCC(N2CCOCC2)CC1)=Cc1ccccc1-3", "values": [{"measurement": "IC50", "setting": "HCV NS5B; Table 1a, read-out: IC50*", "value": "10 to 1000", "unit": "nM"}]}
{"smiles": "CN(C)S(=O)(=O)NC(=O)c1ccc2c(C3CCCCC3)c3n(c2c1)C[C@H](NC(=O)N1CCOCC1)Cc1ccccc1-3", "values": [{"measurement": "IC50", "setting": "HCV NS5B; Table 1a, read-out: IC50*", "value": "10 to 1000", "unit": "nM"}]}
{"smiles": "COc1ccc2c(c1)C=C(C(=O)N1C[C@H](O)C[C@H]1C(=O)Nc1ccc3c(C)cc(=O)oc3c1)Cn1c-2c(C2CCCCC2)c2ccc(C(=O)NS(=O)(=O)N(C)C)cc21", "values": [{"measurement": "IC50", "setting": "HCV NS5B; Table 1a, read-out: IC50*", "value": "10 to 1000", "unit": "nM"}]}
